{"source": "patent US10028931B2", "about": "“Synergistic compositions for treating microbial infections” (UNIVERSITY OF ROCHESTER, priority 2014, dated 2018)", "key": {"[1]": {"system": "S. aureus strain UAMS-1", "test": "Fractional Inhibitory Concentration testing with mupirocin", "assay_type": "cell-based", "conditions": "combined with mupirocin, S. aureus UAMS-1, Mueller Hinton broth, 18 hours; synergistic FIC≤0.5", "experimental": "The RNase P inhibitors described herein were tested for Fractional Inhibitory Concentration (FIC) in the presence of mupirocin. FIC testing was performed to determine the combined effects of mupirocin and the RnpA inhibitors as described herein. Individual wells of a 96-well microtiter plate were inoculated with 1×10^5 CFU of S. aureus strain UAMS-1 in a Mueller Hinton broth. Each row of the plate contained increasing concentrations of RNPA1000 or RNPA2000 (two-fold increments; 0, 0.004, 0.008, 0.016, 0.03, 0.06, 0.125, 0.25, 0.5, 1, 2, or 4×MIC), whereas each column contained increasing concentrations of the indicated antibiotic (two-fold increments; 0, 0.06, 0.125, 0.25, 0.5, 1, 2, or 4×MIC). Plates were incubated for 18 hours at 37° C., and growth was detected by the unaided eye. The FIC was determined using the following formula: (MIC of Drug A in Combination/MIC of Drug A Alone)+(MIC of Drug B in Combination/MIC of Drug B Alone)=FIC. A synergistic interaction was defined as an FIC value≤0.5, no interaction as an FIC of 0.5-4, or an antagonistic interaction FIC>4."}, "[2]": {"target": "T1, RnpA (Staphylococcus aureus, UniProt P0A0H5)", "T1 sequence (P0A0H5 1-117)": "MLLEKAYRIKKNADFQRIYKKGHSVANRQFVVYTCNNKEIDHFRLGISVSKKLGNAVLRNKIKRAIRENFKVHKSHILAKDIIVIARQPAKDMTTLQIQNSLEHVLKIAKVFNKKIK", "test": "RnpA mRNA degradation activity assay", "assay_type": "biochemical", "conditions": "RnpA mRNA degradation, gel densitometry; read-out: RnpA IC50", "procedure,_shortened": "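Total S. aureus RNA (1 μg) or in vitro transcribed spa mRNA (1 pmol) was incubated with 20 pmol RnpA plus compound for 15–30 min at 37° C in 50 mM Tris-HCl pH 8.0, 2 mM NaCl, 2 mM MgCl2. RNA was resolved on denaturing formaldehyde-agarose gels and quantified by densitometry. Percent inhibition is relative to RNA-alone and RnpA+DMSO controls.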"}, "[3]": {"system": "Staphylococcus aureus strain UAMS-1", "test": "Antimicrobial susceptibility testing (MIC, broth microdilution)", "assay_type": "cell-based", "conditions": "S. aureus UAMS-1, Mueller Hinton broth, 37° C.", "procedure,_shortened": "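About 1×10^5 CFU of S. aureus UAMS-1 were exposed to two-fold dilutions (0–256 μg mL−1) in Mueller Hinton broth for 18 h at 37 °C. MIC was the lowest concentration with no visible growth. MBC was determined by counting cells in wells at and above the MIC.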"}, "[4]": {"target": "T2, S. aureus RNase P (RnpA+rnpB) (Staphylococcus aureus, UniProt P0A0H5)", "T2 sequence (P0A0H5 1-117)": "T1 sequence (P0A0H5 1-117)", "test": "RNase P activity assay (precursor tRNA processing)", "assay_type": "biochemical", "procedure,_shortened": "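Reconstituted RnpA+rnpB (1.25 pmol) processed 10 pmol heat-denatured ptRNATyr for 15 min at 37 °C in low-salt (5 mM MgCl2) or high-salt (100 mM MgCl2, 800 mM NH4Cl) Tris pH 8.0 buffer with inhibitor or DMSO. Mature tRNATyr quantified by urea-PAGE densitometry, expressed as % of DMSO control.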"}, "[5]": {"system": "Staphylococcus aureus", "test": "Antimicrobial activity of ointment / petroleum jelly suspensions (FIG. 2, Panel A)", "assay_type": "cell-based", "conditions": "subinhibitory concentration in petroleum jelly, S. aureus", "description": "The addition of an RnpA inhibitor, such as RNPA2000, to mupirocin ointment (Teva Pharmaceuticals USA (North Wales, Pa.)) improved the antimicrobial efficacy of the ointment and is also effective against mupirocin resistant S. aureus. […] See FIG. 2, Panel A, upper left picture. […] See FIG. 2, Panel A, upper right picture."}, "[6]": {"system": "RNase P-mediated tRNA processing", "test": "Precursor tRNA processing within bacterial cells (FIG. 1, Panel B)", "assay_type": "cell-based", "description": "Mupirocin is a generically available antibiotic that inhibits isoleucyl tRNA synthetase in bacterial cells. The enzyme charges tRNA molecules, allowing them to participate in protein translation. RnpA is an enzyme, which together with the ribozyme, rnpB, forms RNase P riboprotein complex that prepares precursor tRNA molecules for charging (it works upstream of tRNA synthetase in the tRNA processing pathway)."}}, "note": "pIC50: −log10 of the molar value. Several values for one entry are separate records, joined by “and”; a condition that tells them apart may be missing. Identical values can stand only once. Like-named read-outs stand apart in the source and are kept apart here."}
{"smiles": "CC(C)c1ccc(OCC(=O)NNC(=S)NC(=O)c2ccco2)cc1", "note": "[RNPA2000]", "values": [{"measurement": "FIC with Mupirocin", "setting": "[1]", "value": 0.44}, {"measurement": "pIC50", "setting": "[2]", "value": "3.56 and 3.74"}, {"measurement": "MIC", "setting": "[3]; 18 hours, listed as MC-220000", "value": 8, "unit": "µg/mL"}, {"measurement": "MIC", "setting": "[3]; Staphylococcus aureus, UAMS1, 18 h, read-out: MIC", "value": 16, "unit": "µg/mL"}, {"measurement": "precursor tRNA processing in vitro", "setting": "[4]; FIG. 1, Panel A", "value": "inhibits precursor tRNA processing"}, {"measurement": "pIC50", "setting": "[4]; ptRNATyr processing, gel densitometry, read-out: RNase P IC50", "value": "3.85 and 3.52"}, {"measurement": "antimicrobial properties in petroleum jelly", "setting": "[5]", "value": "no antimicrobial properties"}, {"measurement": "precursor tRNA processing within bacterial cells", "setting": "[6]", "value": "inhibits precursor tRNA processing"}]}
